Assay results reported in patent US4335249A, “Herbicidal diphenyl ethers, sulfides, sulfoxides and sulfones” (Rohm and Haas Company, priority 1976, dated 1982).

Columns and labels:
Assay type in all cases: in vivo
[1] = system: morningglory (Ipomoca spp.); assay: Preemergence herbicidal activity, morningglory
Procedure: (§1) Using the procedure described below, compounds of the invention are evaluated for control of several of the following plant species:
(§2) The following est procedure is employed. Seeds of selected crops and weeds are planted in soil in flats. For preemergence tests, the flats are treated with the test compound immediately after the planting. For postemergence tests, the seeds are allowed to germinate, and after two weeks the flats are treated with the test compound. The compound to be evaluated is dissolved in acetone, diluted with water, and sprayed over the flats using a carrier volume equivalent to 50 gallons per acre at the rate of application (pounds per acre, lb/A.) specified in the tables. About two weeks after the application of the test compound, the state of growth of the plants is observed and the phytotoxic effect of the compound is evaluated. Tables III and IV give the average percent control achieved by test compounds in terms of the percent of the plants which are killed by the compounds.

[2] = system: downybrome (Bromus tectorum); assay: Postemergence herbicidal activity, downybrome; conditions: Post
Procedure: as §1, §2

[3] = system: barnyardgrass (Echinochloa crusgalli); assay: Postemergence herbicidal activity, barnyardgrass; conditions: Post
Procedure: as §1
(§3) The following est procedure is employed. Seeds of selected crops and weeds are planted in soil in flats. For preemergence tests, the flats are treated with the test compound immediately after the planting. For postemergence tests, the seeds are allowed to germinate, and after two weeks the flats are treated with the test compound. The compound to be evaluated is dissolved in acetone, diluted with water, and sprayed over the flats using a carrier volume equivalent to 50 gallons per acre at the rate of application (pounds per acre, lb/A.) specified in the tables.

[4] = system: cocklebur (Xanthium pensylvanicum); assay: Postemergence herbicidal activity, cocklebur
Procedure: as §1, §2

[5] = system: yellow nutsedge (Cyperus esculentus); assay: Postemergence herbicidal activity, yellow nutsedge
Procedure: as §1, §2

wild oats (Avena fatua) [6] = assay: Postemergence herbicidal activity, wild oats; conditions: Post
Procedure: as §1, §2

foxtail (Setaria spp.) [7] = assay: Postemergence herbicidal activity, foxtail; conditions: Post
Procedure: as §1, §2

marigold (Tagetes spp.) [8] = assay: Preemergence herbicidal activity, marigold
Procedure: as §1, §2

[9] = system: morningglory (Ipomoca spp.); assay: Postemergence herbicidal activity, morningglory
Procedure: as §1, §2

[10] = system: downybrome (Bromus tectorum); assay: Preemergence herbicidal activity, downybrome; conditions: Pre
Procedure: as §1, §2

marigold (Tagetes spp.) [11] = assay: Postemergence herbicidal activity, marigold
Procedure: as §1, §2

[12] = system: yellow nutsedge (Cyperus esculentus); assay: Preemergence herbicidal activity, yellow nutsedge
Procedure: as §1, §2

[13] = system: tomato (Lycopersicon esculentum); assay: Preemergence herbicidal activity, tomato; conditions: Pre
Procedure: as §1, §2

wild oats (Avena fatua) [14] = assay: Preemergence herbicidal activity, wild oats; conditions: Pre
Procedure: as §1, §2

foxtail (Setaria spp.) [15] = assay: Preemergence herbicidal activity, foxtail; conditions: Pre
Procedure: as §1, §2

[16] = system: cocklebur (Xanthium pensylvanicum); assay: Preemergence herbicidal activity, cocklebur
Procedure: as §1, §2

[17] = system: tomato (Lycopersicon esculentum); assay: Postemergence herbicidal activity, tomato; conditions: Post
Procedure: as §1, §2

[18] = system: velvetleaf (Abutilon theophrasti); assay: Postemergence herbicidal activity, velvetleaf
Procedure: as §1, §3

[19] = system: velvetleaf (Abutilon theophrasti); assay: Preemergence herbicidal activity, velvetleaf; conditions: Pre
Procedure: as §1, §2

[20] = system: barnyardgrass (Echinochloa crusgalli); assay: Preemergence herbicidal activity, barnyardgrass; conditions: Pre
Procedure: as §1, §3

## CCOC(=O)C(C)Oc1ccc([S+]([O-])c2cccc(C(F)(F)F)c2)cc1 (stereo not drawn) [Example 50]
[1]; Ipomoea, pre-emergence, 336 h, 4 lb/A
  pest or weed control at 4483.4 g/ha: 0%
[2]; Bromus tectorum, post-emergence, 336 h, 4 lb/A
  pest or weed control at 4483.4 g/ha: 0%
[3]; Echinochloa crus-galli, post-emergence, 336 h, 4 lb/A
  pest or weed control at 4483.4 g/ha: 20%
[4]; Xanthium strumarium, post-emergence, 336 h, 4 lb/A
  pest or weed control at 4483.4 g/ha: 0%
[5]; Cyperus, post-emergence, 336 h, 4 lb/A
  pest or weed control at 4483.4 g/ha: 0%
Wild oats (Avena fatua) [6]; Avena fatua, post-emergence, 336 h, 4 lb/A, read-out: % control, Wild oat
  pest or weed control at 4483.4 g/ha: 20%
Foxtail (Setaria spp.) [7]; Setaria, post-emergence, 336 h, 4 lb/A
  pest or weed control at 4483.4 g/ha: 0%
Marigold (Tagetes spp.) [8]; pre-emergence, 336 h, 4 lb/A
  pest or weed control at 4483.4 g/ha: 0%
[9]; Ipomoea, post-emergence, 336 h, 4 lb/A
  pest or weed control at 4483.4 g/ha: 0%
[10]; Bromus tectorum, pre-emergence, 336 h, 4 lb/A
  pest or weed control at 4483.4 g/ha: 0%
Marigold (Tagetes spp.) [11]; post-emergence, 336 h, 4 lb/A
  pest or weed control at 4483.4 g/ha: 0%
[12]; Cyperus, pre-emergence, 336 h, 4 lb/A
  pest or weed control at 4483.4 g/ha: 0%
[13]; Solanum lycopersicum, pre-emergence, 336 h, 4 lb/A
  pest or weed control at 4483.4 g/ha: 0%
Wild oats (Avena fatua) [14]; Avena fatua, pre-emergence, 336 h, 4 lb/A, read-out: % control, Wild oat
  pest or weed control at 4483.4 g/ha: 0%
Foxtail (Setaria spp.) [15]; Setaria, pre-emergence, 336 h, 4 lb/A
  pest or weed control at 4483.4 g/ha: 0%
[16]; Xanthium strumarium, pre-emergence, 336 h, 4 lb/A
  pest or weed control at 4483.4 g/ha: 0%
[17]; Solanum lycopersicum, post-emergence, 336 h, 4 lb/A
  pest or weed control at 4483.4 g/ha: 20%
[18]; Abutilon theophrasti, post-emergence, 336 h, 4 lb/A
  pest or weed control at 4483.4 g/ha: 0%
[19]; Abutilon theophrasti, pre-emergence, 336 h, 4 lb/A
  pest or weed control at 4483.4 g/ha: 0%
[20]; Echinochloa crus-galli, pre-emergence, 336 h, 4 lb/A
  pest or weed control at 4483.4 g/ha: 0%

## CC(Oc1ccc(Oc2ccc(C(F)(F)F)cc2Cl)cc1)C(=O)O (stereo not drawn) [Example 13]
[1]; Pre, 2 lb/A
  % control, Morningglory: 0%
[2]; 2 lb/A
  % control, Downybrome: 20%
[3]; 2 lb/A
  % control, Barnyardgrass: 100%
[4]; Post, 2 lb/A
  % control, Cocklebur: 0%
[5]; Post, 2 lb/A
  % control, Nutsedge: 0%
Wild oats (Avena fatua) [6]; 2 lb/A
  % control, Wild oat: 60%
Foxtail (Setaria spp.) [7]; 2 lb/A
  % control, Foxtail: 90%
Marigold (Tagetes spp.) [8]; Pre, 2 lb/A
  % control, Marigold: 0%
[9]; Post, 2 lb/A
  % control, Morningglory: 0%
[10]; 2 lb/A
  % control, Downybrome: 70%
Marigold (Tagetes spp.) [11]; Post, 2 lb/A
  % control, Marigold: 0%
[12]; Pre, 2 lb/A
  % control, Nutsedge: 0%
[13]; 2 lb/A
  % control, Tomato: 0%
Wild oats (Avena fatua) [14]; 2 lb/A
  % control, Wild oat: 70%
Foxtail (Setaria spp.) [15]; 2 lb/A
  % control, Foxtail: 100%
[16]; Pre, 2 lb/A
  % control, Cocklebur: 0%
[17]; 2 lb/A
  % control, Tomato: 0%
[18]; Post, 2 lb/A
  % control, Velvetleaf: 0%
[19]; 2 lb/A
  % control, Velvetleaf: 0%
[20]; 2 lb/A
  % control, Barnyardgrass: 100%

## CCCCOC(=O)C(C)Oc1ccc(Oc2ccc(C(F)(F)F)cc2Cl)cc1 (stereo not drawn) [Example 23]
[1]; Ipomoea, pre-emergence, 336 h, 2 lb/A
  pest or weed control at 2241.7 g/ha: 0%
[2]; Bromus tectorum, post-emergence, 336 h, 2 lb/A
  pest or weed control at 2241.7 g/ha: 99%
[3]; Echinochloa crus-galli, post-emergence, 336 h, 2 lb/A
  pest or weed control at 2241.7 g/ha: 100%
[4]; Xanthium strumarium, post-emergence, 336 h, 2 lb/A
  pest or weed control at 2241.7 g/ha: 0%
[5]; Cyperus, post-emergence, 336 h, 2 lb/A
  pest or weed control at 2241.7 g/ha: 0%
Wild oats (Avena fatua) [6]; Avena fatua, post-emergence, 336 h, 2 lb/A, read-out: % control, Wild oat
  pest or weed control at 2241.7 g/ha: 100%
Foxtail (Setaria spp.) [7]; Setaria, post-emergence, 336 h, 2 lb/A
  pest or weed control at 2241.7 g/ha: 100%
Marigold (Tagetes spp.) [8]; pre-emergence, 336 h, 2 lb/A
  pest or weed control at 2241.7 g/ha: 0%
[9]; Ipomoea, post-emergence, 336 h, 2 lb/A
  pest or weed control at 2241.7 g/ha: 20%
[10]; Bromus tectorum, pre-emergence, 336 h, 2 lb/A
  pest or weed control at 2241.7 g/ha: 99%
Marigold (Tagetes spp.) [11]; post-emergence, 336 h, 2 lb/A
  pest or weed control at 2241.7 g/ha: 30%
[12]; Cyperus, pre-emergence, 336 h, 2 lb/A
  pest or weed control at 2241.7 g/ha: 30%
[13]; Solanum lycopersicum, pre-emergence, 336 h, 2 lb/A
  pest or weed control at 2241.7 g/ha: 0%
Wild oats (Avena fatua) [14]; Avena fatua, pre-emergence, 336 h, 2 lb/A, read-out: % control, Wild oat
  pest or weed control at 2241.7 g/ha: 80%
Foxtail (Setaria spp.) [15]; Setaria, pre-emergence, 336 h, 2 lb/A
  pest or weed control at 2241.7 g/ha: 100%
[16]; Xanthium strumarium, pre-emergence, 336 h, 2 lb/A
  pest or weed control at 2241.7 g/ha: 0%
[17]; Solanum lycopersicum, post-emergence, 336 h, 2 lb/A
  pest or weed control at 2241.7 g/ha: 99%
[18]; Abutilon theophrasti, post-emergence, 336 h, 2 lb/A
  pest or weed control at 2241.7 g/ha: 40%
[19]; Abutilon theophrasti, pre-emergence, 336 h, 2 lb/A
  pest or weed control at 2241.7 g/ha: 0%
[20]; Echinochloa crus-galli, pre-emergence, 336 h, 2 lb/A
  pest or weed control at 2241.7 g/ha: 100%
